US4642309A, “Indolin-2-one derivatives preparation thereof and intermediates for the preparation thereof” (Boehringer Mannheim GmbH, priority 1983, dated 1987)
Where two headings read alike, the source gives them in different places.

Experiments:
[1] = system: cardiac β-receptors (beta 1); assay: Beta-receptor blocking activity: inhibition of isoprenaline (1 mcg/kg i.v.) induced heart rate increase (beta 1-blockage) in rabbits; format: in vivo, rabbit; details: for β1-Blockade ID30 fcor / β1-Blockade ID50 fcor: i.v., rabbits; for β1-Blockade ID30 fcor: 30% inhibition of isoprenaline effect on heart rate; for β1-Blockade ID50 fcor: 50% inhibition of isoprenaline effect on heart rate
Procedure: Rabbits were fixed in wooden cages and the blood pressure derived using a catheter placed in the lateral ear artery (details as under 2.). From the blood pressure pulsations, the heart rate was digitally read using an integrator. The beta-receptor blocking quality was determined by measuring inhibitory action against 1 mcg/kg i.v. isoprenaline.

[2] = system: CSE reflex (arterial blood pressure); assay: Vasodilating activity: weakening of the carotid occlusion (CSE) reflex blood pressure rise in anesthetized rabbits; format: in vivo, rabbit; details: for ED (30 mm Hg): Oryctolagus cuniculus, iv; for BQ (ID50 fcor / ED-30 mm Hg): ratio of beta-blocking ID50 to vasodilating ED-30
Procedure: Rabbits were anesthetized with 26%-urethane 5 ml/kg i.v. For a continual measurement of the arterial blood pressure a catheter was implanted into the Arteria femoralis. The blood pressure was measured by means of an electromechanical pressure transducer (Statham P 23/Db). The impulses were registered on a direct printer and after calibration evaluated with a mercury manometer. After determining the starting value, both carotid arteries (Aa. carotides) were occluded for 2 min and thereby the blood pressure temporarily raised (Carotis-Sinus-Relief Reflex-CSE). Following that, the substances were injected in increasing doses and 8 min. later the CSE reflex induced again. In periods of 15 min each, in logarithmically rising dosage (factor 2), the test substance was injected again and the CSE value induced again. Substances which under these conditions weaken the rise of the blood pressure under CSE can be regarded as vasodilating. To estimate the blood pressure lowering quality, the dose was calculated which weakens the CSE reflex by 30 mm Hg (ED-30 mm Hg).

[3] = Tolerability of i.v. doses; details: in vivo, iv
[4] = dose weakening the CSE reflex by 30 mm Hg, anesthetized rabbits, read-out: Vasodilatation CSE ED-30
[5] = statement in text on reference substances, read-out: ED-30 (vasodilating quality)
[6] = read-out: Vasodilatation CSE ED-30

With `COc1ccc(CCNCC(O)COc2cccc3c2CC(=O)N3)cc1` (stereo not drawn) [BM 12.946, 4-<2-hydroxy-3-[2-(4-methoxyphenyl)ethylamino]propoxy>oxindol, reference compound] the “beta-blocking activity (in words)” value [1] was “potent beta-blockers”, the “β1-Blockade ID30 fcor” value [1] was 46 µg/kg and the “β1-Blockade ID50 fcor” value [1] was 188 µg/kg. The “vasodilating quality (in words)” value [2] was “do not have or at least do not have any relevantly vasodilating quality”, the ED (30 mm Hg) [2, 4] was 9.13 mg/kg and the ED (30 mm Hg) [2, 5] was > 9 mg/kg. The “BQ (ID50 fcor / ED-30 mm Hg)” value [2] was 0,02.

In the case of `CC(C)NCC(O)COc1cccc2c1CC(=O)N2` (stereo not drawn) [BM 14.171, 4-(2-hydroxy-3-isopropylaminopropoxy)oxindol, reference compound], the “beta-blocking activity (in words)” value [1] is reported as “potent beta-blockers”, the “β1-Blockade ID30 fcor” value [1] is reported as 1,2 mcg/kg and the “β1-Blockade ID50 fcor” value [1] is reported as 4,3 mcg/kg. For the same compound, the “vasodilating quality (in words)” value [2] was “do not have or at least do not have any relevantly vasodilating quality”, the ED (30 mm Hg) [2, 4] was 11.6 mg/kg and the ED (30 mm Hg) [2, 5] was > 9 mg/kg. For the same compound, the “BQ (ID50 fcor / ED-30 mm Hg)” value [2] was 0,0004.

With `CC(C)NCC(O)COc1cccc2c1C(=Cc1ccccc1O)C(=O)N2` (stereo not drawn) [Example 1a, 4-(2-hydroxy-3-isopropylaminopropoxy)-3-(2-hydroxybenzylidene)-indolin-2-one] the “β1-Blockade ID30 fcor” value [1] was 98 µg/kg, the “β1-Blockade ID50 fcor” value [1] was 317 µg/kg and the ED (30 mm Hg) [2, 4] was 2.71 mg/kg. The “BQ (ID50 fcor / ED-30 mm Hg)” value [2] was 0,12.

For `CSc1ccc(C=C2C(=O)Nc3cccc(OCC(O)CNC(C)C)c32)c(O)c1` (stereo not drawn) [Example 1d, 4-(2-hydroxy-3-isopropylaminopropoxy)-3-(2-hydroxy-4-methylthiobenzylidene)-indolin-2-one], the “β1-Blockade ID30 fcor” value [1] was 21 µg/kg, the “β1-Blockade ID50 fcor” value [1] was 46 µg/kg and the ED (30 mm Hg) [2, 4] was 1.48 mg/kg. The “BQ (ID50 fcor / ED-30 mm Hg)” value [2] was 0,03.

In the case of `O=C(O)c1ccccc1.O=C1Nc2cccc(OCC(O)CNCCOc3ccc(O)cc3)c2C1=Cc1ccccc1O` (stereo not drawn) [Example 1p, 4-{2-hydroxy-3-[2-(4-hydroxyphenoxy)-ethylamino]-propoxy}-3-(2-hydroxybenzylidene)-indolin-2-one benzoate], the “β1-Blockade ID30 fcor” value [1] is reported as 192 µg/kg, the “β1-Blockade ID50 fcor” value [1] is reported as 932 µg/kg and the ED (30 mm Hg) [2, 6] is reported as 0.75 mg/kg. The “BQ (ID50 fcor / ED-30 mm Hg)” value [2] was 1,24.

For `O=C1Nc2cccc(OCC(O)CNCCOc3ccc(O)cc3)c2C1=Cc1ccccc1C(=O)O` (stereo not drawn) [Example 1r, 4-{2-hydroxy-3-[2-(4-hydroxyphenoxy)-ethylamino]-propoxy}-3-(2-carboxybenzylidene)-indolin-2-one], the “β1-Blockade ID30 fcor” value [1] was 205 µg/kg, the “β1-Blockade ID50 fcor” value [1] was 823 µg/kg and the ED (30 mm Hg) [2, 4] was 2.03 mg/kg. For the same compound, the “BQ (ID50 fcor / ED-30 mm Hg)” value [2] was 0,41.

With `O=C1Nc2cccc(OCC(O)CNCCOc3ccccc3)c2C1=Cc1ccn[nH]1` (stereo not drawn) [Example 1u, 4-[2-hydroxy-3-(2-phenoxyethylamino)-propoxy]-3-(pyrazol-5-yl)-methyleneindolin-2-one] the “β1-Blockade ID30 fcor” value [1] was 9,9 mcg/kg, the “β1-Blockade ID50 fcor” value [1] was 58 µg/kg and the ED (30 mm Hg) [2, 4] was 0.331 mg/kg. The “BQ (ID50 fcor / ED-30 mm Hg)” value [2] was 0,18.

In the case of `O=C1Nc2cccc(OCC(O)CNCCOc3ccc(O)cc3)c2C1Cc1ccccc1O` (stereo not drawn) [Example 7d, 4-{2-hydroxy-3-[2-(4-hydroxyphenoxy)-ethylamino]-propoxy}-3-(2-hydroxybenzyl)-indolin-2-one cyclohexylsulphaminate], the “β1-Blockade ID30 fcor” value [1] is reported as 27 µg/kg, the “β1-Blockade ID50 fcor” value [1] is reported as 85 µg/kg and the ED (30 mm Hg) [2, 4] is reported as 0.97 mg/kg. For the same compound, the “BQ (ID50 fcor / ED-30 mm Hg)” value [2] was 0,09.

With `O=C(O)/C=C/C(=O)O.O=C1Nc2cccc(OCC(O)CNCCOc3ccc(O)cc3)c2C1Cc1ccn[nH]1` (stereo not drawn) [Example 7e, 4-{2-hydroxy-3-[2-(4-hydroxyphenoxy)-ethylamino]-propoxy}-3-(pyrazol-5-yl-methyl)-indolin-2-one fumarate] the “β1-Blockade ID30 fcor” value [1] was 65 µg/kg, the “β1-Blockade ID50 fcor” value [1] was 254 µg/kg and the ED (30 mm Hg) [2, 4] was 0.54 mg/kg. For the same compound, the “BQ (ID50 fcor / ED-30 mm Hg)” value [2] was 0,47.

With `O=C(O)/C=C/C(=O)O.O=C1Nc2cccc(OCC(O)CNCCOc3ccccc3)c2C1Cc1ccn[nH]1` (stereo not drawn) [Example 7f, 4-[2-hydroxy-3-(2-phenoxyethylamino)-propoxy]-3-(pyrazol-5-yl-methyl)-indolin-2-one fumarate] the “β1-Blockade ID30 fcor” value [1] was 334 µg/kg, the “β1-Blockade ID50 fcor” value [1] was 1020 µg/kg and the ED (30 mm Hg) [2, 4] was 0.43 mg/kg. The “BQ (ID50 fcor / ED-30 mm Hg)” value [2] was 2,37.

In the case of `CC(C)NCC(O)COc1cccc2ccccc12` (stereo not drawn) [Propranolol, 1-(isopropylamino)-3-(1-naphthyloxy)-2-propanol, reference compound], the MTD ([3]; not tolerated at all, read-out: dose above which not tolerated at all) is reported as > 30 mg/kg, the MTD ([3]; poorly tolerated, read-out: dose above which poorly tolerated) is reported as > 10 mg/kg and the “beta-blocking activity (in words)” value [1] is reported as “potent beta-blockers”. For the same compound, the “β1-Blockade ID30 fcor” value [1] was 126 µg/kg, the “vasodilating quality (in words)” value [2] was “do not have or at least do not have any relevantly vasodilating quality” and the ED (30 mm Hg) ([2]; read-out: ED-30 (vasodilating quality)) was > 9 mg/kg. The ED (30 mm Hg) [2, 6] was 30 mg/kg and the “BQ (ID50 fcor / ED-30 mm Hg)” value [2] was 0,01.
